These results are taken from patent US7163698B2, “Controlled drug delivery system using the conjugation of drug to biodegradable polyester” (priority 1998, dated 2007).

Series [1] deals with human hepatoblastoma cell line (HepG2). The note with it: literature value; read-out: reported IC50; cited from earlier work.
The test system of the next series is mouse EL4 thymoma cells. The note with it: 240 μg/kg s.c. daily during 12 days, C57BL16 mice.
For series [2], the system named is human hepatoblastoma cell line (HepG2). Nature of the series: Cytotoxicity MTT assay. The note with it: HepG2, 72 hrs. Format: cell-based. The protocol: Cytotoxicities of doxorubicin and its PLGA oligomer conjugates released from nanoparticles were determined against human hepatoblastoma cell line (HepG2) obtained from Korea Research Institute of Bioscience and Biotechnology. Free doxorubicin and the released fraction from nanoparticles for 19 days incubation were used for determining the inhibition of cell growth using a tetrazolium dye (MTT) assay according to the previously established method [R. I. Freshney, Measurement of Viability and Cytotoxicity, Chapter 19 in Culture of Animal Cells, Third Edition., Wiley-Liss Inc., New York, 1994, pp. 287–307]. Dulbecco's modification of Eagle's MEM (DMEM) was used as a major cell growth medium and a humidified atmosphere (5% CO2) was maintained for cell culture. HepG2 cells harvested in a logarithmic growth phase were seeded on 96 wells at a cell density of 5×10^3 cells/ml. After incubating the cells in a logarithmic phase with various concentrations of free doxorubicin and the released fraction for 72 hrs, the MTT assay was performed and the percentage of cell viability was then determined.
Background: Tetrazolium assays rely on reduction of a dye to a coloured formazan, in cell work by metabolically active cells.

For series [3] the following is noted: with polyester polymer carrier; cited from earlier work.

Where two headings read alike, the source gives them in different places.

Description for mouse EL4 thymoma cells: Antitumor activity against solid tumor of free doxorubicin, free PLGA, doxorubicin encapsulated in nanoparticles and doxorubicin conjugated with nanoparticles was evaluated with mouse EL4 thymoma cells. EL4 Cells (2×10^4 cells in 0.1 ml of PBS pH 7.4 buffer) were transplanted into C57BL16 female mice (10 weeks old) subcutaneously on day 0 and drug injection started on day 10, when tumor diameter reached approximately 2 mm.
The mice were divided into five different groups, each group consisting of 6 mice. The first group, control group, was s.c. injected 100 μl PBS pH 7.4 daily during 12 days and the second group free doxorubicin (240 μg/kg body weight). However, the third group was s.c. injected placebo microsphere daily in the first two days, the fourth group nanoparticle conjugated with doxorubicin (2.4 mg/kg body weight) and the fifth group, doxorubicin encapsulated in nanoparticle (1.2 mg/kg body weight).

For the compound `COc1cccc2c1C(=O)c1c(O)c3c(c(O)c1C2=O)C[C@@](O)(C(=O)CO)C[C@@H]3O[C@H]1C[C@H](N)[C@H](O)[C@H](C)O1` [free doxorubicin, doxorubicin], the IC50 in series [1] was 7.3 µM; in series [2], 8.9 µM. Also, the “antitumor activity (tumor diameter)” value in the series on mouse EL4 thymoma cells is reported as “significant tumor growth inhibition”.

Regarding gentamycin, the initial burst effects entry in series [3] is reported as “over 50%”.

One may read the IC50 as the concentration needed to halve the response being measured.
